The values that follow are results of earlier work, collected in patent US20250325495A1, “SILK NANOPARTICLE SYNTHESIS: TUNING SIZE, DISPERSITY, AND SURFACE CHEMISTRY FOR DRUG DELIVERY” (Trustees of Tufts College, priority 2022, published 2025).

The structures appear in SMILES notation.

In the series the test system is GBM cell lines. Conditions: compared with temozolomide.

As to `COc1cccc2c1C(=O)c1c(O)c3c(c(O)c1C2=O)C[C@@](O)(C(=O)CO)C[C@@H]3O[C@H]1C[C@H](N)[C@H](O)[C@H](C)O1` [doxorubicin], the cytotoxic effects result is given as “superior cytotoxic effects”.
